The values below come from PubChem BioAssay AID1918934 (Molecular Pharmacology Branch, DTP, NCI, 2023).

Several values for one entry are separate records, joined by “and”; a condition that tells them apart may be missing. Equal entries are not always repeated.

The assay concerns 292921-168-R-J2-PDC complex spheroid viability. Nature of the assay: Anticancer human tumor 292921-168-R-J2-PDC patient-derived pancreatic carcinoma cell line growth inhibition. The settings on record: for viability, T/C: stronger effect = lower value; for IC50: curve of compound. From the text:
Multicellular complex tumor spheroid response to LSD1 Inhibitor Iadademstat in combination with a variety of drugs and investigational agents in selected tumor cell lines
The current study was undertaken to assess response to LSD1 inhibitors in combination with standard-of-care drugs and investigational agents in solid tumor complex spheroid models as well as in the K-562 leukemia. Complex spheroids include a stromal component modeled by human endothelial cells (HUVEC) and fibroblasts modeled by human mesenchymal stem cells (MSCs). The concentration ranges selected for each drug and investigational agent were based upon clinically achievable concentrations if the clinical Cmax of the agent was known.
Compounds. The drugs and investigational agents used in this study are listed on Table 1. All of the agents used, including staurosporine (NSC755774) and gemcitabine (NSC613327), were obtained from the Developmental Therapeutics Program, NCI. FDA-approved anticancer drugs are available from the NCI at http://dtp.nci.nih.gov/branches/dscb/oncology_drugset_explanation.html. Drugs and investigational agents were >95% pure by proton nuclear magnetic resonance (NMR) and liquid chromatography/mass spectrometry (LC/MS). Stock solutions were prepared at 400x in DMSO, stored at -70 degrees C, and diluted in fresh medium prior to their use. The final concentration of DMSO in cell culture wells never exceeded 0.25% (v/v). The FDA-approved anticancer drug set is available from the Developmental Therapeutics Program at https://dtp.cancer.gov/organization/dscb/obtaining/available_plates.htm. All drugs and investigational agents were tested over a range starting from a high concentration at or near the clinical Cmax and decreasing in half-log increments. If the clinical Cmax for an agent had not been determined, the highest concentration tested was 10 microM.
Cell Lines. The patient-derived cancer cell (PDC) lines: 292921-168-R-J2-PDC, K24384-001-R-PDC, and 521955-158-R2-J5-PDC pancreatic carcinomas, 556581-035-R-J1 ovarian carcinoma, 324938-238-R-J1-PDC, 855422-203-R-J1-PDC and 883617-216-R-J1-PDC urothelial bladder carcinomas, 743489-274-T-PDC renal cell carcinoma, 138582-R-J1 Merkel cell tumor, K60290-347-R-J1 and K57222-313-R-J1-PDC glioblastomas, 653999-131-R-J2-PDC, LG0703-F948-PDC, and 349418-098-R-PDC non-small cell lung carcinomas, 885512-296-R-J2-PDC, 171881-019-R-J1-PDC breast carcinomas and 186277-243-T-J2-PDC and 233499-124-R-J2-PDC colon carcinomas were obtained from the NCI Patient-Derived Models Repository (PDMR, https://pdmr.cancer.gov). The established cell lines NCI/ADR-RES (RRID:CVCL_14520 and OVCAR-5 (RRID:CVCL_1628) ovarian carcinomas, 786-O (RRID:CVCL_1051) and A498 (RRID:CVCL_A498) renal cell carcinoma, NCI-H211 (ATCC, cat. CRL-5824; RRID:CVCL_1529), NCI-H196 (ATCC, cat. CRL-5823, RRID:CVCL_1509), SW 1271 (ATCC, cat. CRL-2177, RRID:CVCL_1716) and NCI-H1876 (ATCC, cat. CRL-5902, RRID:CVCL_1503) small cell lung carcinomas, MDA-MB-231 (RRID:CVCL_0062) and MDA-MB-468 (RRID:CVCL_0419)breast carcinomas (10-12). Pooled donor human umbilical vein endothelial cells (HUVEC, Lonza, cat. CC-2519) and human mesenchymal stem cells (hMSC, Lonza, cat. PT-2501) were purchased from Lonza (Walkersville, MD).
Cell Culture. All cells were maintained in an incubator at 37 degrees C and 5% CO2 with 95% humidity. The PDC lines were cultured according to standard operating procedures established by the NCI PDMR (https://pdmr.cancer.gov). Briefly all PDCs were thawed and cultured in Matrigel-coated flasks prepared with a working solution of 1X Ham's F-12 nutrient mix, without supplementation (Invitrogen, Waltham, MA, cat. 11765054), 100 U/mL penicillin-streptomycin (Invitrogen, cat. 15140122), and 2.5% Matrigel (Corning Inc., Corning, NY, cat. 354248) for the first three passages. […]
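Further: seven day compound exposure before luminescent viability read.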

What is called viability, T/C is the ratio of treated to control. The IC50 is the concentration at which inhibition is half-maximal. With `CC(C)CC(NC(=O)C(Cc1ccccc1)NC(=O)c1cnccn1)B(O)O` (stereo not drawn), the concentration for half-maximal inhibition (IC50) is less than 0.316 nM. In addition, the viability, T/C (compound 0.000316 µM) was 18.8% and 20.7%. Moreover, the viability, T/C (compound 0.001 µM) is 0.9% and 1.54%. For the same molecule, under “compound 0.00316 µM”, the viability, T/C is 0.34% and 1.04%. Besides, the viability, T/C (compound 0.01 µM) is 0.42% and 0.8%. The viability, T/C (compound 0.0316 µM) was 0.19% and 0.21%. The viability, T/C (compound 0.1 µM) is 0.21%.

Consider `CC(C)CC(NC(=O)CNC(=O)c1cc(Cl)ccc1Cl)B1OC(=O)CC(CC(=O)O)(C(=O)O)O1` (stereo not drawn), for which the concentration for half-maximal inhibition (IC50) is 5.86 nM and 5.94 nM. Further, the viability, T/C (compound 0.000316 µM) is 99.1% and 96.2%. In addition, the viability, T/C (compound 0.001 µM) was 113% and 105%. Besides, the viability, T/C (compound 0.00316 µM) is 87.8% and 85.7%. In addition, where the note is “compound 0.01 µM”, the viability, T/C is 17% and 20.2%. Also, the viability, T/C (compound 0.0316 µM) is 6.27% and 3.15%. Under “compound 0.1 µM”, the viability, T/C was 0.79% and 0.83%.

Take `CC1(C)CCC(CN2CCN(c3ccc(C(=O)NS(=O)(=O)c4ccc(NCC5CCOCC5)c([N+](=O)[O-])c4)c(Oc4cnc5[nH]ccc5c4)c3)CC2)=C(c2ccc(Cl)cc2)C1`: the half-inhibitory concentration (IC50) was 2030 nM and 1980 nM. Besides, the viability, T/C (compound 0.0316 µM) is 105% and 108%. Also, the viability, T/C (compound 0.1 µM) is 114%. The viability, T/C (compound 0.316 µM) was 110% and 108%. Further, the viability, T/C (compound 1 µM) is 98.1% and 94.9%. In addition, where the note is “compound 3.16 µM”, the viability, T/C was 20% and 19.2%. Further, the viability, T/C (compound 10 µM) is 0.32% and 0.33%.

Consider `CC1COCCN1c1cc(-c2ccnn2C)c2ccnc(-c3ccn[nH]3)c2n1` (stereo not drawn), for which the concentration for half-maximal inhibition (IC50) was less than 3.16 nM. Besides, the viability, T/C (compound 0.00316 µM) is 15.4% and 15.1%. Besides, the viability, T/C (compound 0.01 µM) was 12.8% and 16.4%. For the setting “compound 0.0316 µM”, the viability, T/C is 12.4% and 13%. Also, the viability, T/C (compound 0.1 µM) was 16.3% and 14.8%. Also, the viability, T/C (compound 0.316 µM) was 17.2% and 17.7%. In addition, the viability, T/C (compound 1 µM) was 17.8% and 18.7%.

Consider `CCN(c1cc(-c2ccc(CN3CCOCC3)cc2)cc(C(=O)NCc2c(C)cc(C)[nH]c2=O)c1C)C1CCOCC1`, for which the concentration for half-maximal inhibition (IC50) was 1350 nM and 1460 nM. Also, the viability, T/C (compound 0.00949 µM) is 100% and 99.5%. The viability, T/C (compound 0.03 µM) was 115% and 103%. Also, under “compound 0.0949 µM”, the viability, T/C is 99%. The viability, T/C (compound 0.3 µM) is 85.1% and 80.7%. In addition, the viability, T/C (compound 0.949 µM) was 63.7% and 67.6%. The viability, T/C (compound 3 µM) was 22.2% and 24.3%.

As to `CC[C@@]1(O)C(=O)OCc2c1cc1n(c2=O)Cc2cc3c(CN(C)C)c(O)ccc3nc2-1`, the concentration for half-maximal inhibition (IC50) is 3.45 nM and 4.11 nM. Also, the viability, T/C (compound 0.000316 µM) is 96.8% and 95.3%. Besides, the viability, T/C (compound 0.001 µM) was 79.3% and 94.1%. In addition, the viability, T/C (compound 0.00316 µM) is 54.4% and 57.1%. For the same molecule, the viability, T/C (compound 0.01 µM) was 21.4% and 21.1%. Moreover, for the setting “compound 0.0316 µM”, the viability, T/C was 9.12% and 10.3%. In addition, under “compound 0.1 µM”, the viability, T/C is 4.35% and 3.55%.

With `CCc1c2c(nc3ccc(O)cc13)-c1cc3c(c(=O)n1C2)COC(=O)[C@]3(O)CC`, the IC50 was less than 0.949 nM. Moreover, the viability, T/C (compound 0.000949 µM) was 5.38% and 4.72%. In addition, the viability, T/C (compound 0.003 µM) is 3.5% and 2.75%. Moreover, the viability, T/C (compound 0.00949 µM) is 1.25% and 1.31%. Moreover, the viability, T/C (compound 0.03 µM) was 0.84% and 1.16%. In addition, the viability, T/C (compound 0.0949 µM) was 1.07% and 1.04%. Where the note is “compound 0.3 µM”, the viability, T/C is 0.92% and 1.24%.

`COc1cc(C2c3cc4c(cc3C(OC3OC5COC(C)OC5C(O)C3O)C3COC(=O)C23)OCO4)cc(OC)c1O` (stereo not drawn): the concentration for half-maximal inhibition (IC50) was 39.7 nM and 52.7 nM. For the same molecule, where the note is “compound 0.00949 µM”, the viability, T/C is 91.1% and 92%. Where the note is “compound 0.03 µM”, the viability, T/C was 57.8% and 69.4%. The viability, T/C (compound 0.0949 µM) is 26.8% and 28.4%. The viability, T/C (compound 0.3 µM) was 17.8% and 16.7%. Under “compound 0.949 µM”, the viability, T/C is 8.57% and 7.24%. In addition, the viability, T/C (compound 3 µM) was 5.06% and 4.06%.

As to `COc1cc(Nc2ncc3c(n2)-c2ccc(Cl)cc2C(c2c(F)cccc2OC)=NC3)ccc1C(=O)O`, the IC50 is less than 3.16 nM. In addition, the viability, T/C (compound 0.00316 µM) was 33% and 38.1%. The viability, T/C (compound 0.01 µM) was 40.7% and 42.1%. Under “compound 0.0316 µM”, the viability, T/C is 36% and 39.1%. Further, under “compound 0.1 µM”, the viability, T/C was 30.2% and 37.9%. The viability, T/C (compound 0.316 µM) was 27.7% and 29.6%. The viability, T/C (compound 1 µM) was 16.1% and 17.5%.
